Reference: patent US6569612B1, “Photographic element containing a high-dye-yield coupler for producing a yellow hue” (Eastman Kodak Company, priority 2001, dated 2003)
Read-outs that look alike come from different tables or passages of the source. Each block holds one compound with its values, some of them ahead of it.

Assay: Measuring pKas of couplers in TRITON X-100 media
Type: physicochemical
Procedure: Procedure for Measuring pKas of Couplers in TRITONX-100 Media:
A solution of the coupler that was ca. 5E-3 M was made with 5.0 mL of dimethyl sulfoxide solvent. A 0.50-mL aliquot of the solution was added to 3.18 g of Triton X- 100 surfactant in a 50-mL volumetric flask. Then ca. 25 mL of ca. 40-deg C. distilled water was added while swirling vigorously. The solution was then cooled to ambient temperature and diluted to 50 mL with water. Various phosphate buffer solutions as potassium salts were prepared with pHs ranging from 3.73 to 12 with ionic strength of 0.75. Ionic strength computations were done using the three pKas for phosphoric acid. A 2.0-mL aliquot of the stock coupler solution was mixed with 2.0 mL of chosen buffer in a 5-dram vial. […] A wavelength between 310 and 350 nm was typically chosen. The pH of the mixture was then measured with a CORNING Model 125 meter. A baseline reference blank spectrum was run with TRITON X-100 (surfactant) and pH 7 buffer. The data of corrected absorbances (differences from the blank spectrum) and pHs were used to compute by least-squares the pKa and the other two unknowns of high and low limiting densities. The pKa measurements are made with an experimental uncertainty within ±0.10, which depends on sources of material, the number of experimental points, number of replicates, and the like.

[1] = Table 3, TRITON X-100 media, read-out: pKa
[2] = Table 5, TRITON X-100 media, read-out: pKa
[3] = Table 7, TRITON X-100 media, read-out: pKa
[4] = Table 4, TRITON X-100 media, read-out: pKa
[5] = Table 8, TRITON X-100 media, read-out: pKa

pKa [1]: 5.1
Structure (SMILES): CCCCCCCCCCCCOC(=O)c1ccc(Cl)c(NC(=O)C(C(=O)c2ccc(OC)cc2)N2C(=O)C(OCC)N(Cc3ccccc3)C2=O)c1 (stereo not drawn) [CY-1, reference compound]

pKa [1]: 10.6
Structure (SMILES): CCC(C)(C)c1cc(C(C)(C)CC)c2oc(/C(C#N)=C/c3ccc(N(C(=O)OC(C(=O)Nc4cc(CS(=O)(=O)c5ccccc5)ccc4Cl)C(=O)c4ccc(OC)cc4)C4CCCC4)cc3C)nc2c1 (stereo not drawn) [CY-4, reference compound]

pKa [1]: 10
Structure (SMILES): CCC(C)(C)c1cc(C(C)(C)CC)c2oc(/C(C#N)=C/c3ccc(N(C(=O)OC(C(=O)Nc4cc(CS(=O)(=O)c5ccc(O)cc5)ccc4Cl)C(=O)c4ccc(OC)cc4)C4CCCC4)cc3C)nc2c1 (stereo not drawn) [CY-5, reference compound]

pKa [1]: 9.1
Structure (SMILES): CCCCCCCCCCCCOC(=O)c1ccc(Cl)c(NC(=O)C(OC(=O)N(C)c2ccc(/C=C(\C#N)c3nc4cc(C(C)(C)C)ccc4o3)c(C)c2)C(=O)c2ccc(OC)cc2)c1 (stereo not drawn) [CY-7, reference compound]

pKa [2]: 9.5
Structure (SMILES): CCCCCCCCCCCCNS(=O)(=O)c1ccc(NC(=O)C(OC(=O)N(c2ccc(/C=C(\C#N)c3nc4cc(C(C)(C)C)ccc4o3)c(C)c2)C2CCCC2)C(=O)c2ccc(OC)cc2)c(Cl)c1 (stereo not drawn) [CY-8, reference compound]

pKa (standard measurement, read-out: pKa at the coupling site): 8.7
Structure (SMILES): CCCCCCCCCCCCCCCCNS(=O)(=O)c1ccc(Cl)c(NC(=O)C(OC(=O)N(CCCCCCCCCCCC)c2ccc(/C=C(\C#N)c3nc4ccccc4o3)c(C)c2)C(=O)c2ccc(OC)cc2)c1 (stereo not drawn) [CY-12, reference compound]

pKa [3]: 8.8
Structure (SMILES): CCCCCCCCCCCCCCCCNS(=O)(=O)c1ccc(Cl)c(NC(=O)C(OC(=O)N(CCCC)c2ccc(/C=C(\C#N)c3nc4ccccc4o3)c(C)c2)C(=O)c2ccc(OC)cc2)c1 (stereo not drawn) [CY-13, reference compound]

More lines, now with the values behind:

Structure (SMILES): CCCCCCCCCCCCS(=O)(=O)c1ccc(NC(=O)C(OC(=O)N(C)c2ccc(/C=C(\C#N)c3nc4cc(C(C)(C)C)ccc4o3)c(C)c2)C(=O)c2ccccc2)c(Cl)c1 (stereo not drawn) [Coupler Y-1]
pKa [1]: 7.4

Structure (SMILES): CCCCCCCCCCCCCCCCNS(=O)(=O)c1ccc(Cl)c(NC(=O)C(OC(=O)N(C)c2ccc(/C=C(\C#N)c3nc4cc(C(C)(C)C)ccc4o3)c(C)c2)C(=O)c2ccc(OC)cc2)c1 (stereo not drawn) [Coupler Y-2]
pKa [1]: 8.5

Structure (SMILES): CCCCCCCCCCCCS(=O)(=O)c1ccc(NC(=O)C(OC(=O)N(c2ccc(/C=C(\C#N)c3nc4cc(C(C)(C)C)ccc4o3)c(C)c2)C2CCCC2)C(=O)c2ccccc2)c(Cl)c1 (stereo not drawn) [Coupler Y-3]
pKa [4]: 7.8

Structure (SMILES): COc1ccc(C(=O)C(OC(=O)N(c2ccc(/C=C(\C#N)c3nc4cc(C(C)(C)C)ccc4o3)c(C)c2)C2CCCC2)C(=O)Nc2ccc([N+](=O)[O-])cc2Cl)cc1 (stereo not drawn) [Coupler Y-4]
pKa [4]: 8.2

Structure (SMILES): CCC(C)(C)c1cc(C(C)(C)CC)c2oc(/C(C#N)=C/c3ccc(N(C(=O)OC(C(=O)Nc4ccc([N+](=O)[O-])cc4Cl)C(=O)c4ccccc4)C4CCCC4)cc3C)nc2c1 (stereo not drawn) [Coupler Y-5]
pKa [2]: 7.4

Structure (SMILES): CCCCCCCCCCCCNS(=O)(=O)c1ccc(NC(=O)C(OC(=O)N(c2ccc(/C=C(\C#N)c3nc4ccccc4o3)c(C)c2)C2CCCC2)C(=O)c2ccccc2)c(Cl)c1 (stereo not drawn) [Coupler Y-9]
pKa [3]: 8

Structure (SMILES): CCCCCCCCCCCCS(=O)(=O)c1ccc(NC(=O)C(OC(=O)N(c2ccc(/C=C(\C#N)c3nc4ccccc4o3)c(C)c2)C2CCCC2)C(=O)c2ccc(Cl)cc2)c(Cl)c1 (stereo not drawn) [Coupler Y-10]
pKa [5]: 7.2

Structure (SMILES): CCCCCCCCCCCCS(=O)(=O)c1ccc(NC(=O)C(OC(=O)N(CC)c2ccc(/C=C(\C#N)c3nc4cc(C(C)(C)CC(C)(C)C)ccc4o3)c(C)c2)C(=O)c2ccc(Cl)cc2)c(Cl)c1 (stereo not drawn) [Coupler Y-11]
pKa [5]: 7
